What was measured:
Osteocalcin−/− mice = assay: Bronchoconstriction of Osteocalcin−/− mice, intracerebroventricular infusion; assay type: in vivo, mouse; conditions: intracerebroventricular infusions in Osteocalcin−/− mice
mice = assay: Mouse asthma model (albumin sensitisation, nebulized albumin); assay type: in vivo; conditions: osteocalcin given by nebulization together with the nebulized albumin
From the text: In a mouse asthma model that involves intraperitoneal injection of albumin (to sensitize the mice) followed a week later by nebulized administration of albumin to the lungs of the mice, osteocalcin given by nebulization together with the nebulized albumin prevented the bronchoconstriction that would have otherwise been observed.

[1] = Crossing of the blood-brain barrier; conditions: stated without test description
aged WT mice = assay: Novel Object Recognition test in aged WT mice with ICV infusion; assay type: in vivo, mouse
Procedure: FIG. 15. Osteocalcin improves hippocampal function in aged wild-type (WT) mice. Constant and novel object investigation in the Novel Object Recognition test in 17 month old mice treated for 1 month with vehicle or 10 ng/hr recombinant uncarboxylated osteocalcin.
ICV pumps delivering (10 ng/hr) recombinant uncarboxylated full-length mouse osteocalcin were implanted in 16 month old WT mice. After an infusion period of one month, the mice were subjected to a modified version of the Novel Object Recognition test, to assay memory and hippocampal function. Briefly, mice were given five 5 minute exposures, with 3 minute resting intervals between exposures, to a novel arena containing two objects. During exposures 1-4, mice were habituated to these two objects, which elicited equal amounts of exploration. In the fifth exposure, one of the objects was replaced with a novel object.

C2C12 myoblasts = assay: GLUT4 translocation to the plasma membrane (flow cytometry); assay type: cell-based
From the text: Rather, it promoted the translocation of GLUT4 to the plasma membrane of C2C12 myoblasts that express both Gprc6a and Glut4. A similar increase in the accumulation of GLUT4 was observed after exercise in WT but not in Gprc6aMck−/− mice (FIG. 26I). Signaling through GPCRs can favor PI3K activation, leading to Akt phosphorylation, an event that favors the translocation of GLUT4 to the plasma membrane (Lopez-Ilasaca et al., 1997, Science 275:394-397). In agreement with this notion, Akt phosphorylation in muscles of Gprc6Mck−/− mice was decreased compared to muscles of control mice after exercise. […]
Glucose and insulin tolerance tests were performed as previously described (Lee et al., 2007, Cell 130:456-469). For in vivo glucose uptake, a bolus of 2-deoxy-d-[^3H]glucose (^3H-2-DG, Perkin Elmer) (10 μCi) was administered before an endurance run. ^3H-2-DG and ^3H-2-DG-6-P content in muscle was determined by liquid scintillation counter and normalized to muscle weight. […] GLUT4 translocation was determined by flow cytometry using an antibody against the extracellular domain of the GLUT4 protein (Santa Cruz, Sc-1606). […] To analyze mitochondrial function, myofibers were treated with three compounds in succession (oligomycin 10 μg/ml, FCCP 200 μM, rotenone 0.2 μM) and OCR was recorded following administration of each of them.

Gprc6a−/− myotubes = assay: 14C-oleate (fatty acid) oxidation in myotubes; assay type: cell-based, mouse
Procedure: (§1) Glucose and insulin tolerance tests were performed as previously described (Lee et al., 2007, Cell 130:456-469). For in vivo glucose uptake, a bolus of 2-deoxy-d-[^3H]glucose (^3H-2-DG, Perkin Elmer) (10 μCi) was administered before an endurance run. ^3H-2-DG and ^3H-2-DG-6-P content in muscle was determined by liquid scintillation counter and normalized to muscle weight. Glucose uptake and fatty acid oxidation assays in myotubes were performed as previously described (Sebastian et al., 2007, Am. J. Physiol. Endocrinol. Metab. 292:E667-686). GLUT4 translocation was determined by flow cytometry using an antibody against the extracellular domain of the GLUT4 protein (Santa Cruz, Sc-1606). Measurements of oxygen consumption rates (OCR) in isolated myofibers were performed using a XF24 Seahorse Analyzer® (Seahorse Biosciences). To analyze mitochondrial function, myofibers were treated with three compounds in succession (oligomycin 10 μg/ml, FCCP 200 μM, rotenone 0.2 μM) and OCR was recorded following administration of each of them.
(§2) Culture of skeletal muscle myoblasts from 7 day-old mice was performed as described (Gharaibeh et al., 2008, Nature Protocols 3:1501-1509). Myoblasts were differentiated into myotubes for 3-4 days in a medium containing 5% horse serum. Muscle fibers were isolated from flexor digitorum brevis muscle. Muscles were dissected with DMEM 2% collagenase for 2 hours at 37° C., in a 5% CO2 incubator. Muscle fibers were disaggregated from the tissue using a wide bore pipet and plated in matrigel-coated plates at approximately 50% confluence. After overnight incubation, isolated myofibers were used.

WT myotubes = assay: 14C-oleate (fatty acid) oxidation in myotubes; assay type: cell-based, mouse
Procedure: as §1, §2

muscle = assay: Gene expression in muscle (qPCR); assay type: in vivo, mouse
Procedure: FIG. 31. Osteocalcin treatment increases muscle function in young and old WT mice. (A-B) Performance during endurance exercise of 3 month-old WT, Gprc6af/f and Gprc6aMck−/− female mice treated with Ocn (n=6-10 per group). (C) Performance during endurance exercise of 12 and 15 month-old WT female mice treated with Ocn (n=6-10 per group). (D) Western blot analysis of Akt phosphorylation (Ser473) in muscles of WT mice injected with Ocn (500 ng/g) after a single bout of exercise. (E) Western blot analysis of AMPK phosphorylation ([…]) in muscles of WT mice injected with Ocn (500 ng/g) after a single bout of exercise. (F) Western blot analysis of HSL phosphorylation (Ser563) in muscles of WT mice injected with Ocn (500 ng/g) after a single bout of exercise. (G) Uptake of ^3H-2-DG in glycolytic (Gly—white quadriceps) and oxidative (Ox—red quadriceps) muscles after a single bout of exercise in 15 month-old WT mice receiving Ocn before running (n=5 per group). (H) Performance during endurance exercise of 10 month-old WT mice receiving Ocn for 28 days (n=7 per group). (I) Expression of Cd36, Fatp1 and Cpt1b in gastrocnemius of 10 month-old WT mice receiving Ocn for 28 days (n=7 per group). (J) Western blot analysis of Akt phosphorylation (Ser473) in muscles of WT mice receiving Ocn for 28 days (n=7 per group). (K) Schematic representation of how osteocalcin signaling in myofibers and IL-6 cooperate to increase exercise capacity.
Serum osteocalcin, PINP, CTX, and insulin levels were measured using ELISA assays. Blood glucose level was measured using an Accu-Check glucometer. Urine 3-MHT was measured as previously described (Aranibar et al., 2011, Anal. Biochem. 410:84-91). Determination of cAMP accumulation was performed using a commercial kit (R&D). For gene expression, 1 μg of total RNA was reverse transcribed into cDNA. qPCR analyses were performed using a SYBER green master mix (Applied Biosciences) and a CFX-Connect real time PCR (Bio-Rad). Relative expression levels of each gene were normalized to that of Hprt or Gapdh. […]

uncarboxylated osteocalcin: Recombinant uncarboxylated mouse osteocalcin, bacterially produced, purified on glutathione beads and cleaved from the GST subunit by thrombin (YLGASVPSPDPLEPTREQCELNPACDELSDQYGLKTAYKRIYGITI)
bronchoconstriction (Osteocalcin−/− mice): do not correct
bronchoconstriction (mice): prevented
crossing of the blood-brain barrier [1]: crosses
crossing of the blood-brain barrier ([1]; listed as undercarboxylated/uncarboxylated osteocalcin): can cross
time exploring the novel object (aged WT mice; 10 ng/hr ICV for one month, 16 month old WT mice, versus vehicle alone): less time
discrimination between the novel and constant objects (aged WT mice; 10 ng/hr ICV for one month, aged mice): able to discriminate
hippocampal function (aged WT mice; aged WT mice (FIG. 15 title)): improves
translocation of GLUT4 to the plasma membrane (C2C12 myoblasts): promoted
14C-oleate oxidation (Gprc6a−/− myotubes): could not increase
14C-oleate oxidation (WT myotubes; WT myotubes): increase
fatty acid oxidation (WT myotubes; summary statement, in muscle): favors
expression in muscles of Glut1 (muscle; at rest or after exercise): did not affect
expression in muscles of Glut4 (muscle; at rest or after exercise): did not affect
expression in muscle of Fatp1 (muscle; mini-pumps 90 ng/hour for 28 days): increase

Source: patent US11191811B2, “Osteocalcin as a treatment for frailty associated with aging” (THE TRUSTEES OF COLUMBIA UNIVERSITY IN THE CITY OF NEW YORK, priority 2014, dated 2021)
